How the values were obtained:
weeds [1] = assay: Ex20 PRE greenhouse; assay type: in vivo; settings: weed and rate in the words
Source text: Herbicides: • 2,4 DC-21 (36.7% CS): 125, 170, 210, or 250 g ai/ha alone and as tank-mix with dimethenamid-P • Dimethanamid-P (Outlook, 63.9%): 250, 375, 500 g ai/ha in combination with 2,4 DC and alone, additional treatment alone at 750 g ai/ha. • Metazachlor (Butisan 43.1%): 500 g ai/ha
Herbicides included as standards for comparison were metazachlor plus dimethenamid-P (500 g) as tank mix combination. […] Treatments were replicated 3 times. […] Thereafter flats were watered and fertilized routinely.

Wild oat = assay: Ex12 PRE 2,4-DC + dimethenamid-P, % control 28 DAT, Colby; assay type: in vivo, Avena fatua
Experimental: (§1) The tested weeds include: wild buckwheat (Polygonum convolvulus, POLCO), velvetleaf (Abutilon theophrasti, ABUTH), cheat (Bromus secalinus, BROSE), wild oat (Avena fatua, AVEFA), radish (Raphanus sativus, RAPSN), corn poppy (Papaver rhoeas, PAPRH), yellow foxtail (Setaria pumila, SETLU), Italian ryegrass (Lolium perenne ssp. multiflorum, LOLMU). The tested crop was Oilseed rape.
(§2) This greenhouse study was conducted to assess the preemergence (PRE) weed control and oilseed rape tolerance with 2,4 DC (CS 36.7%) and dimethenamid-P (Outlook®, 63.9%) tank-mix combinations.
(§3) Metazachlor (Butisan, 43.1%) plus dimethenamid-P applied as tank mix at 500 g each was applied as commercial standard. Treatments were replicated 3 times and flats were watered after planting but before the treatment and then lightly watered after treatment application. Thereafter flats were watered and fertilized routinely.

Wild buckwheat [2] = assay: as above; assay type: in vivo, Polygonum convolvulus
Experimental: as §1, §2, §3

Common ragweed = assay: Ex16 PRE 2,4-DC + pyroxasulfone, % control 28 DAT, Colby; assay type: in vivo, Ambrosia artemisiifolia
Source text: (§4) To determine PRE efficacy, five levels of 2,4 DC (36.7% CS) 0, 125, 170, 210, or 250 g ai/ha and five levels of pyroxasulfone (KIH485-85WG) 0, 50, 65, 80, or 95 g ai/ha were applied either alone or as tank-mix. Additional treatments consisted of premix of pyroxasulfone plus fluthiacet-methyl (Anthem™ 23.3%) at 169.9 g ai/ha, S-metolachlor (Dual II Magnum, 82.4%) at 1388 g, and tank-mix of mesotrione (Callisto, 40%) at 123 g plus S-metolachlor at 1252 g. […] Treatments were applied before the emergence of black nightshade, giant foxtail, green foxtail, yellow foxtail, large crabgrass, kochia, redroot pigweed, common ragweed, and barnyardgrass.
(§5) Flats were watered and fertilized routinely after treatment application. Each treatment was replicated three times.

Morningglory sp. = assay: Ex38 PRE 2,4-DC + pyroxasulfone, % control 28 DAT, Colby; assay type: in vivo, Ipomea spp; settings: PRE
Source text: Pyroxasulfone plus fluthiacet-methyl (ANTHEM™, 23.3%) applied at 165 g ai/ha was included as a standard for comparison. […] Thereafter flats were watered and fertilized routinely.

[3] = test system: weeds; Wheat, barley, and oil seed rape (OSR); assay: Ex19 PRE greenhouse; assay type: in vivo; settings: rate in the words
Source text: In this study, the crops tested included Wheat, barley, and oil seed rape (OSR).
To determine weed efficacy and wheat, barley or OSR selectivity, 2,4 DC (CS 36.7%) and Diflufenican (CS 19.5%) were applied preemergence either alone or as tank-mix partners at the following rates. 2,4 DC was applied at 125, 170, 210 and 250 g ai/ha while Diflufenican was applied at 50, 75, and 100 g ai/ha. Pyroxasulfone (KIH-485, 85%) at 74.3 g ai/ha, pendimethalin (Prowl 3.3EC, 37.4%) at 1200 g ai/ha, or a premix of chlorsulfuron plus metsulfuron-methyl (Report Extra, 75%) at 15.8 g ai/ha were applied as commercial standards.
Herbicides included as standards for comparison were pyroxasulfone, pendimethalin, and a pre mix of chlorsulfuron plus metsulfuron methyl, all applied at labeled rates as indicated above. Treatments were replicated 3 times. […] Thereafter flats were watered and fertilized routinely.

weeds [4] = assay: Ex13 PRE greenhouse; assay type: in vivo; settings: 28 DAT, weed and rate in the words
Source text: Pyroxasulfone (KIH-485, 85%) at 74.3 g ai/ha, pendimethalin (Prowl 3.3EC, 37.4%) at 1200 g ai/ha, or a premix of chlorsulfuron plus metsulfuron-methyl (Report Extra, 75%) at 15.8 g ai/ha were applied as commercial standards. […] Treatments were replicated 3 times and flats were watered after planting before the treatment and lightly watered after treatment application. Thereafter flats were watered and fertilized routinely.

weeds [5] = assay: Ex24 PRE greenhouse; assay type: in vivo; settings: weed and rate in the words
Source text: The tested weeds include Giant foxtail (Setaria faberi, SETFA), green foxtail (Setaria virdis, SETVI), yellow foxtail (Setaria pumila, SETLU), black nightshade (Solanum nigrum, SOLNI), kochia (Kochia scoparia, KCHSC), redroot pigweed (Amaranthus retroflexus, AMARE), common ragweed (Ambrosia artemisiifolia, AMBEL), barnyardgrass (Echinochloa crus-galli, ECHCG), large crabgrass (Digitaria sanguinalis, DIGSA).
as §4, with “DC-21” for “DC”, “Magnum®,” for “Magnum,”, “(Callisto®,” for “(Callisto,”, “bamyardgrass. […] Flats were watered and fertilized routinely after treatment application. Each treatment was replicated three times.” for “barnyardgrass.”

weeds [6] = assay: Ex16 PRE greenhouse; assay type: in vivo; settings: weed and rate in the words
Source text: as §4, §5

Black nightshade = assay: Ex15 PRE 2,4-DC + S-metolachlor, % control 28 DAT, Colby; assay type: in vivo, Solanum nigrum
Source text: (§6) The weeds tested in this study were redroot pigweed (Amaranthus retroflexus, AMARE), Jimsonweed (Datura stramonium, DATST), black nightshade (Solanum nigrum, SOLNI), large crabgrass (Digitaria sanguinalis, DIGSA), Pennsylvania smartweed (Polygonum pensylvanicum, POLPY), horseweed (Conyza canadensis, ERICA), wild buckwheat (Polygonum convolvulus, POLCO). The crop tested was Corn (var. Viking).
(§7) To determine PRE efficacy and corn injury, five rates of each 2,4 DC (36.7% CS) and S-metolachlor (Dual II Magnum®, 82.4%) were applied either alone or as tank-mix. 2,4 DC was applied at 0, 125, 170, 210, or 250 g ai/ha and S-metolachlor was applied at 0, 267, 534, 801, or 1070 g ai/ha. Additional treatments included application of premix of pyroxasulfone plus fluthiacet-methyl (Anthem™ 23.3%) at 169.9 g ai/ha and tank-mix of mesotrione (Callisto®, 40%) at 123 g plus S-metolachlor at 1252 g. Treatments were applied just after the planting of large crabgrass, Jimsonweed, black nightshade, redroot pigweed, Pennsylvania smartweed, horseweed, wild buckwheat, and corn.
(§8) Flats were watered and fertilized routinely after treatment application. Each treatment was replicated three times. […] Corn injury was rated for bleaching and stunting.

weeds [7] = assay: Ex22 PRE greenhouse; assay type: in vivo; settings: 28 DAT, weed and rate in the words
Source text: 2,4 DC (36.7% CS) was applied PRE at 0, 125, 170, 210, or 250 g ai/ha alone or as a tank-mix with S-metolachlor (Dual II Magnum®, 82.4%) at 0, 267, 534, 801, or 1070 g ai/ha. Pyroxasulfone plus fluthiacet-methyl (Anthem™, 23.3%) applied at 169.9 g ai/ha, and the tank-mix of mesotrione (Callisto®, 40%) at 123 g plus S-metolachlor (Dual II Magnum®, 82.4%) at 1252 g were included as a standards for comparison.
Thereafter flats were watered and fertilized routinely. Each treatment was replicated three times.

weeds [8] = assay: Ex10 PRE greenhouse; assay type: in vivo; settings: 28 DAT, weed and rate in the words
Source text: Treatments 1-12 of 2,4-DC and aclonifen tank-mix combinations follow same rates listed above. […] Sulfentrazone (Spartan 4F® 39.6%) at 280 g ai/ha, pendimethalin (Prowl 3.3®EC, 37.4%) at 784 g ai/ha, or S-metolachlor (Dual II Magnum® 82.4%) at 1084 g ai/ha were applied as commercial standards. Treatments were replicated 3 times and flats were watered after planting but before the treatment and lightly watered after treatment application. Thereafter flats were watered and fertilized routinely. […] Shepherd's-purse was rated at 21 and 28 DAT only, due to delayed emergence.

jimsonweed = assay: Ex15 PRE 2,4-DC + S-metolachlor, % control 28 DAT, Colby; assay type: in vivo, Datura stramonium
Source text: as §6, §7, §8

weeds [9] = assay: Ex21 PRE greenhouse; assay type: in vivo; settings: 28 DAT, weed and rate in the words
Source text: 2,4 DC (36.7% CS) was applied PRE at 0, 125, 170, 210, or 250 g ai/ha alone or as a tank-mix with S-metolachlor (Dual II Magnum®, 82.4%) at 0, 267, 534, 801, or 1070 g ai/ha. Pyroxasulfone plus fluthiacet-methyl (Anthem™, 23.3%) applied at 169.9 g ai/ha, and the tank-mix of mesotrione (Callisto®, 40%) at 123 g plus S-metolachlor (Dual II Magnum®, 82.4%) at 1252 g were included as standards for comparison. […] Thereafter flats were watered and fertilized routinely. Each treatment was replicated three times.

[10] = test system: weeds; Corn (var. Viking); assay: Ex15 PRE greenhouse; assay type: in vivo; settings: rate in the words
Source text: as §6, §7, §8

Wild buckwheat [11] = assay: Ex15 PRE 2,4-DC + S-metolachlor, % control 28 DAT, Colby; assay type: in vivo, Polygonum convolvulus
Source text: as §6, §7, §8

weeds; Corn = assay: Ex25 PRE greenhouse; assay type: in vivo; settings: rate in the words
Source text: The crop tested in this study was Corn.
2,4 DC-21 (36.7% CS) was applied PRE at 0, 125, 170, 210, or 250 g ai/ha alone or as a tank-mix with pyroxasulfone (KIH-485, 85% WP) at 0, 50, 65, 80, or 95 g ai/ha. Pyroxasulfone plus fluthiacet-methyl (Anthem™, 23.3%) applied at 169.9 g ai/ha, s-metolachlor (Dual II Magnum®, 82.4%) applied at 1389 g, and the tank-mix of mesotrione (Callisto®, 40%) at 123 g plus s-metolachlor (Dual II Magnum®, 82.4%) at 1252 g were included as a standards for comparison. […] Thereafter flats were watered and fertilized routinely.

Pennsylvania smartweed = assay: Ex15 PRE 2,4-DC + S-metolachlor, % control 28 DAT, Colby; assay type: in vivo, Polygonum pensylvanicum
Source text: as §6, §7, §8

[12] = dimethenamid-P alone 250 g ai/ha
[13] = dimethenamid-P alone 375 g ai/ha
[14] = dimethenamid-P alone 500 g ai/ha
[15] = S-metolachlor alone 267 g ai/ha
[16] = S-metolachlor alone 534 g ai/ha
[17] = S-metolachlor alone 801 g ai/ha
[18] = S-metolachlor alone 1070 g ai/ha

## COC[C@H](C)N(C(=O)CCl)c1c(C)csc1C [Dimethenamid-P, dimethenamid-P, reference compound]
Weeds [1]
  weed control in words: alone controlled redroot pigweed, giant foxtail, and goosegrass at all rates; common chickweed at ≥375 g; shepherd's-purse at ≥500 g; and Canada thistle at 750 g
Wild oat; [12]
  Y: 66%
Wild oat; [13]
  Y: 73%
Wild oat; [14]
  Y: 90%
Wild buckwheat [2]; [12]
  Y: 32%
Wild buckwheat [2]; [13]
  Y: 70%
Wild buckwheat [2]; [14]
  Y: 63%

## Cn1nc(C(F)(F)F)c(CS(=O)(=O)C2=NOC(C)(C)C2)c1OC(F)F [Pyroxasulfone, pyroxasulfone, reference compound]
Common ragweed; pyroxasulfone alone 50 g ai/ha
  Y: 40%
Common ragweed; pyroxasulfone alone 65 g ai/ha
  Y: 53%
Common ragweed; pyroxasulfone alone 80 g ai/ha
  Y: 40%
Common ragweed; pyroxasulfone alone 95 g ai/ha
  Y: 70%
Morningglory sp.; pyroxasulfone 30 g ai/ha
  Y (% control, pyroxasulfone alone): 9%
Morningglory sp.; pyroxasulfone 60 g ai/ha
  Y (% control, pyroxasulfone alone): 60%
Morningglory sp.; pyroxasulfone 90 g ai/ha
  Y (% control, pyroxasulfone alone): 65%
[3]
  weed control / crop safety in words: controlled all weeds except field violet and was safe on wheat only
Weeds [4]
  weed control in words: at 74.3 g controlled all weeds except tall morningglory and shepherd's-purse
Weeds [5]
  weed control in words: controlled all species except common ragweed which was not controlled at any rate
Weeds [6]
  weed control in words: controlled all species except common ragweed which was not controlled at any rate

## CCc1cccc(C)c1N(C(=O)CCl)[C@@H](C)COC [S-metolachlor, reference compound]
Black nightshade; [15]
  Y: 46%
Black nightshade; [16]
  Y: 85%
Black nightshade; [17]
  Y: 90%
Black nightshade; [18]
  Y: 95%
Weeds [7]
  weed control in words: applied alone controlled Johnsongrass and goosegrass at all rates and controlled Benghal dayflower, prickly sida and common lambsquarters at 801 g
Weeds [8]
  weed control in words: at 1064 g controlled only two weeds
jimsonweed; [15]
  Y: 17%
jimsonweed; [16]
  Y: 17%
jimsonweed; [17]
  Y: 23%
jimsonweed; [18]
  Y: 28%
Weeds [6]
  weed control in words: controlled black nightshade, redroot pigweed, barnyardgrass, large crabgrass, and all three foxtail species
Weeds [9]
  weed control in words: applied alone controlled yellow foxtail, green foxtail, and barnyardgrass at all rates, quackgrass or common chickweed at ≥534 g, and common lambsquarters at ≥801 g
[10]
  weed control / crop safety in words: alone gave control of all species at different rates except Jimsonweed
Wild buckwheat [11]; [15]
  Y: 33%
Wild buckwheat [11]; [16]
  Y: 65%
Wild buckwheat [11]; [17]
  Y: 82%
Wild buckwheat [11]; [18]
  Y: 85%
weeds; Corn
  weed control / crop safety in words: controlled only black nightshade and also caused severe stunting to corn
Pennsylvania smartweed; [15]
  Y: 75%
Pennsylvania smartweed; [16]
  Y: 95%
Pennsylvania smartweed; [17]
  Y: 100%
Pennsylvania smartweed; [18]
  Y: 100%
